For assay [1], the system named is KPL4. Put plainly: Inhibition of Hsp90 in human KPL4 cells assessed as depletion of Raf-1 level after 40 hrs. The class given is cell-based.
Assay [2] relates to KPL4. Description: Inhibition of Hsp90 in human KPL4 cells assessed as depletion of ErbB2 level after 40 hrs. The class given is cell-based.
Assay [3] in a line: Binding affinity at purified Hsp90 by DELFIA assay.
Assay [4] concerns HCT-116. Description: Growth inhibition of human HCT116 cells. The class given is functional.
A short description of assay [5]: Growth inhibition of human KPL4 cells. The class given is functional.
For assay [6], the system named is DLD-1. Description: Growth inhibition of human DLD1 cells. The class given is functional.
In assay [7] the test system is A549. Put plainly: Growth inhibition of human A549 cells. The class given is functional.
The test system of assay [8] is K562. Description: Induction of human K562 cells differentiation. The class given is functional, cell-based.

The source of these data is ChEMBL document CHEMBL1141505, “Conformational significance of EH21A1-A4, phenolic derivatives of geldanamycin, for Hsp90 inhibitory activity” (Bioorg Med Chem Lett, 2008).

Structures are written as SMILES. Bounds are passed on as bounds.

On to `COc1c(O)cc2cc1C[C@@H](C)C[C@H](OC)[C@H](O)[C@@H](C)/C=C(\C)[C@H](OC(N)=O)[C@@H](OC)CC/C=C(\C)C(=O)N2` [REBLASTATIN], for which the MEC in assay [1] and in assay [2] was 0.33 µM throughout. The EC50 in assay [3] turned out to be 2.3 nM; in assay [8], 760 nM. For the same compound, the 50% growth inhibitory concentration (GI50) in assay [4] was 500 nM; in assay [5] it was 450 nM; in assay [6] it was 2080 nM; in assay [7], 2720 nM.

As to `COC1=C2C[C@@H](C)C[C@H](OC)[C@H](O)[C@@H](C)/C=C(\C)[C@H](OC(N)=O)[C@@H](OC)/C=C\C=C(/C)C(=O)NC(=CC1=O)C2=O` [GELDANAMYCIN], the MEC in assay [1] amounted to 0.33 µM; in assay [2] it was 0.11 µM. It took 57 nM to reach a half-maximal effect in assay [3] (EC50). Further, the GI50 came to 21 nM in assay [4], 59 nM in assay [5], 37 nM in assay [6] and 64 nM in assay [7].

Consider `CO[C@H]1C[C@H](C)Cc2cc(O)cc(c2)NC(=O)/C=C/CC[C@H](OC)[C@@H](OC(N)=O)/C(C)=C/[C@H](C)[C@H]1O`, for which the MEC in assay [1] and in assay [2] was 3.3 µM in each case. Besides, the EC50 in assay [3] was 14.7 nM; in assay [8], 11000 nM. Besides, the GI50 in assay [4] was more than 10000 nM; in assay [5] it was 3390 nM; in assay [6], more than 10000 nM; in assay [7], more than 10000 nM.

For the compound `CO[C@H]1C[C@H](C)Cc2cc(O)cc(c2)NC(=O)/C(C)=C/CC[C@H](OC)[C@@H](OC(N)=O)/C(C)=C/[C@H](C)[C@H]1O`, the MEC in assay [1] and in assay [2] was 1 µM in each case. Besides, the values for the EC50 in assay [3] and in assay [8] were 2.2 nM and 1900 nM, respectively. In addition, the GI50 in assay [4] turned out to be 780 nM; in assay [5], 730 nM; in assay [6], 2350 nM; in assay [7] it was 2730 nM.

As for `CO[C@H]1C[C@H](C)Cc2cc(cc(O)c2O)NC(=O)/C(C)=C/CC[C@H](OC)[C@@H](OC(N)=O)/C(C)=C/[C@H](C)[C@H]1O`, the MEC in assay [1] and in assay [2] was 10 µM in each case. Moreover, the half-maximal effective concentration (EC50) in assay [3] worked out at 6 nM; in assay [8], 21000 nM. Further, the GI50 in assay [4] is 8910 nM; in assay [5] it was 4330 nM; in assay [6], 9400 nM; in assay [7], 10300 nM.

Take `C=CCNC1=C2C[C@@H](C)C[C@H](OC)[C@H](O)[C@@H](C)/C=C(\C)[C@H](OC(N)=O)[C@@H](OC)/C=C\C=C(/C)C(=O)NC(=CC1=O)C2=O` [TANESPIMYCIN]: the MEC in assay [1] and in assay [2] was 0.03 µM throughout. For the same compound, in assay [5], halving of growth (GI50) required 7 nM.

For `COc1c2cc(cc1OC(C)=O)NC(=O)/C(C)=C/CC[C@H](OC)[C@@H](OC(N)=O)/C(C)=C/[C@H](C)[C@@H](O)[C@@H](OC)C[C@H](C)C2`, the MEC in assay [1] is 0.11 µM; in assay [2], 0.33 µM. Also, the results for the concentration giving a half-maximal response (EC50) in assay [3] and in assay [8] were 20.8 nM and 230 nM, respectively. Moreover, the 50% growth inhibitory concentration (GI50) was found to be 610 nM in assay [4], 180 nM in assay [5], 3520 nM in assay [6] and 3550 nM in assay [7].

In turn, `C[C@@H]1C[C@H]2O[C@@H]2/C=C\C=C\C(=O)Cc2c(Cl)c(O)cc(O)c2C(=O)O1` [RADICICOL] showed an EC50 in assay [3] of 0.8 nM. Further, the GI50 worked out at 58 nM in assay [4], 76 nM in assay [6] and 110 nM in assay [7].

In general, EC50 refers to the concentration giving half of the maximal effect. What is called GI50 is the concentration that inhibits growth by half.
